Our source for the Ki values is BindingDB's records for doi:10.1021/jm040903t (Sapienza University of Rome, 2005).

Test [1] concerns the target T1, Amine oxidase [flavin-containing] B (Bos taurus, UniProt P56560).
T1 sequence (P56560 whole entry): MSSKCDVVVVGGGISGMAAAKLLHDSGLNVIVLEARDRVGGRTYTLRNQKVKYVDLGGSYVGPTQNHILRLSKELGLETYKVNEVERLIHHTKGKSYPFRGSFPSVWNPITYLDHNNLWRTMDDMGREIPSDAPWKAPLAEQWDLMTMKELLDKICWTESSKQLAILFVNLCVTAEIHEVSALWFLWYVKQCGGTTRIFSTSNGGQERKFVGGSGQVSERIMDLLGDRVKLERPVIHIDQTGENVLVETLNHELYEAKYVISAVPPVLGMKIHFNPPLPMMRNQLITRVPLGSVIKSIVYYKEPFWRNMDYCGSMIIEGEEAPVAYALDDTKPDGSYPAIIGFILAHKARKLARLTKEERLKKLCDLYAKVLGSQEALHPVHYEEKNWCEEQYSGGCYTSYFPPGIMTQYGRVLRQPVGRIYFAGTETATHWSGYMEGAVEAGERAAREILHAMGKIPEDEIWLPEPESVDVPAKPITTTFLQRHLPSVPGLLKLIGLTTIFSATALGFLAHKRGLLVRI
Description: MAO Inhibition Assay. The conditions noted are these: pH 7.4; 38 °C. On the procedure: (§1) MAO A and MAO B activities were determined […] using kynuramine as substrates. Fluorimetric measurements were recorded with a Perkin-Elmer LS 50B spectrofluorimeter. Dixon plots were used to estimate the inhibition constant (Ki) of the inhibitors. The data are the mean values of three or more experiments performed in duplicate.

Test [2] concerns the target T2, Amine oxidase [flavin-containing] A (Bos taurus, UniProt P21398).
T2 sequence (P21398 whole entry): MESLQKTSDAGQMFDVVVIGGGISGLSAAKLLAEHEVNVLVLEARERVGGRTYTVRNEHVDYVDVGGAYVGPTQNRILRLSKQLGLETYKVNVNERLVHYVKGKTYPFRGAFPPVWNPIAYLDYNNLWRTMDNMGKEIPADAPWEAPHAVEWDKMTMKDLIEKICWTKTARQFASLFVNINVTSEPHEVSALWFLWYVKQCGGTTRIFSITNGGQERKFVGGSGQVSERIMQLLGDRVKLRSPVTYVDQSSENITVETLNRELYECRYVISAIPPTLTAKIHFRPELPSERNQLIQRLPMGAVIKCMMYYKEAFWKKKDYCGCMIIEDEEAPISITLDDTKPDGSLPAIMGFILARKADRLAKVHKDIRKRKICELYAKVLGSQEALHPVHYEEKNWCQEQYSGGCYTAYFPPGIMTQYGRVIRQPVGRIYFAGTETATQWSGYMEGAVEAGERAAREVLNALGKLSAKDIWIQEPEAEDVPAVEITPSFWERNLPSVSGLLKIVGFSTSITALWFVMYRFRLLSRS
Description: MAO Inhibition Assay. The conditions noted are these: pH 7.4; 38 °C. On the procedure: as §1

Broadly, the Ki is the equilibrium dissociation constant of an inhibitor or competing ligand from its target. Regarding `Cc1ccc(C2=NN(C(N)=S)C(c3ccc(Cl)cc3)C2)cc1` (configuration not stated) [5-(4-chlorophenyl)-3-(4-methylphenyl)-4,5-dihydro-1H-pyrazole-1-carbothioamide], the Ki in test [1] was 1.5 nM. In test [2], `NC(=S)N1N=C(c2ccc(F)cc2)C[C@H]1c1ccc(Cl)cc1` [(5S)-5-(4-chlorophenyl)-3-(4-fluorophenyl)-4,5-dihydro-1H-pyrazole-1-carbothioamide] had a Ki of 5 nM.
